Measurements taken from patent publication US11446298B2, “Pyrimidine derivatives” (Idorsia Pharmaceuticals Ltd, priority 2017, dated 2022).
pIC50: −log10 of the molar value.

Key:
Format in all cases: cell-based
PTGER4 (EP4) = target: T1, PTGER4 (EP4) (Homo sapiens, UniProt P35408); test: hEP4 b-Arrestin Assay (PathHunter HEK 293 PTGER4 b-arrestin cells, PGE2 20 nM); details: antagonistic activity, beta-arrestin assay, HEK 293 PTGER4 cells, PGE2 20 nM (EC80); read-out: hEP4 b-arr IC50
T1 construct: host or cells: HEK 293 (PathHunter, stably transfected)
T1 sequence (P35408 whole entry): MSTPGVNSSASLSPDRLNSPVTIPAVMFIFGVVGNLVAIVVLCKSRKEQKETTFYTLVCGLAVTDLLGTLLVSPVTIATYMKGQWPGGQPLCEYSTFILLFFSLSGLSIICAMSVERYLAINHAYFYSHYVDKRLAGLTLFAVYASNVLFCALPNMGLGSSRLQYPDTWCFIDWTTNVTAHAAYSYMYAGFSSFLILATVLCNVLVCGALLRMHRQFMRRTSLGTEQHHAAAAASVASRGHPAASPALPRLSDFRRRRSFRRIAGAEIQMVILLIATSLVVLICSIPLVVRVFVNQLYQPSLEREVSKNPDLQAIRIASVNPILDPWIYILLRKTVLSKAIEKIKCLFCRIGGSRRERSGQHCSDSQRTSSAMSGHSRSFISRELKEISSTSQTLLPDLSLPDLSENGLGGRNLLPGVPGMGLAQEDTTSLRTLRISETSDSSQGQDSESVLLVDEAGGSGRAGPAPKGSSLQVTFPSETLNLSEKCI
Description: (§1) The antagonistic activities of the compounds of formula (I) on the EP2 and EP4 receptors are also determined in accordance with the following experimental method.
(§2) The assay is using the PathHunter™ HEK 293 PTGER2 and PTGER4 b-arrestin cell lines from DiscoverX. The system is based on the Enzyme Fragment Complementation Technology. Two complementing fragments of the b-galactosidase enzyme are expressed within stably transfected cells. The larger portion of b-gal, termed EA for Enzyme Acceptor, is fused to the C-terminus of b-arrestin 2. The smaller fragment, termed ProLink™ tag, is fused to PTGER2 (EP2) or PTRGER4 (EP4) at the C-terminus. Upon activation, b-arrestin is recruited which forces the interaction of ProLink and EA, allowing complementation of the two fragments of b-gal and the formation of a functional enzyme which is capable of hydrolysing the substrate and generating a chemiluminescent signal.
(§3) The HEK 293 PTGER4 b-arrestin cells (DiscoverX 93-030-4C1) are detached from culture dishes with a cell dissociation buffer (Invitrogen, 13151-014), and collected in growing medium (GM: DMEM+Glutamax-I (Invitrogen 32430)/10% FCS, 1% Penicilin/streptomycin). 5000 cells per well of a 384 well plate (white with white bottom Greiner 781080) are seeded in 20 ul per well of GM. Plate is incubated at 37° C., 5% CO2 for 24 hours.
(§4) Stock solutions of test compounds are made at a concentration of 10 mM in DMSO, and serially diluted in DMSO to concentrations required for inhibition dose response curves (tested concentration range 10 μM-2 nM or 1 μM-0.2 nM).
PGE2 (Cayman 14010, stock solution: 100 μM in DMSO) is used as agonist at 20 nM final concentration, corresponding to EC80.
Five microliters of diluted compounds are transferred into the assay plate. Plate is pre-incubated 15 minutes at 37° C. Then five microliters of PGE2 (final conc. 20 nM) are transferred into the assay plate. Plate is incubated 120 minutes at 37° C.
(§5) PathHunter Glo Detection Kit components are thawed and mix according to manufacturer's instructions: 1 part Galacton Star Substrate with 5 parts Emerald II™ Solution, and 19 parts of PathHunter Cell Assay Buffer, respectively. Twelve μl of reagent are transferred to the assay plate and incubate for 1 hour at room temperature in the dark. Luminescence counts are read on a BMG Fluostar Optima reader according to manufacturer's instructions.
(§6) For each compound concentration calculate of the percentage of activity compared to DMSO control value as average ±STDEV. (each concentration is measured in duplicate)
(§7) IC50 values and curves are generated with XLfit software (IDBS) using Dose-Response One Site model 203. When compounds were measured multiple times, mean values are given.

EP4 = target: T2, EP4 (Homo sapiens, UniProt P35408); test: hEP4 cAMP Assay (BT549 breast cancer cells, HTRF cAMP, PGE2 6 nM); details: antagonistic activity, PGE2 6 nM (EC80)
T2 construct: BT549 breast cancer cells, express high endogenous EP4 levels and very low EP2 levels; host or cells: BT549 breast cancer cells
T2 sequence (P35408 whole entry): as above
Outline: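 BT549 cells (endogenous EP4, very low EP2) in HBSS/20 mM HEPES/0.2% BSA/2 mM IBMX, pre-incubated 45 min RT with compound, then stimulated 30 min RT with PGE2 6 nM (EC80). cAMP read by HTRF competitive immunoassay (665/620 nm), converted via calibrator to % of DMSO control; IC50 from duplicate dose-response curves.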

EP2 = target: T3, EP2 (Homo sapiens, UniProt P43116); test: hEP2 cAMP Assay (SF295 glioblastoma cells, HTRF cAMP, PGE2 75 nM); details: antagonistic activity, PGE2 75 nM (EC80)
T3 construct: SF295 glioblastoma cells express high endogenous EP2 and no EP4; host or cells: SF295 glioblastoma cells
T3 sequence (P43116 whole entry): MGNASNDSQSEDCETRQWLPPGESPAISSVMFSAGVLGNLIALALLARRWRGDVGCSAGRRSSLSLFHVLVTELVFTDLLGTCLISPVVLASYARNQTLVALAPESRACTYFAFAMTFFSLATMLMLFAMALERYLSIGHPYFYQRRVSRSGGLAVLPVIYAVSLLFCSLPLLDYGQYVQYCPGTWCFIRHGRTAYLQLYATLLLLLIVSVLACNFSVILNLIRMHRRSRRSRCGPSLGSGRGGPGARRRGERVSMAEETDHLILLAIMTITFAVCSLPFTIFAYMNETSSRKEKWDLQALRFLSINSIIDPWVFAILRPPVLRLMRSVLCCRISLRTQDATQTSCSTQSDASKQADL
Outline: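 IC50 values derive from duplicate-point curves of percent cAMP relative to DMSO, read by HTRF (665/620 nm) against a cAMP calibrator. Compounds (30 μM to 0.01 nM ranges) were given 45 min at room temperature before 30 min with 75 nM PGE2, in EP2-only SF295 cells with 2 mM IBMX.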

PTGER2 (EP2) = target: T4, PTGER2 (EP2) (Homo sapiens, UniProt P43116); test: hEP2 b-Arrestin Assay (PathHunter HEK 293 PTGER2 b-arrestin cells, PGE2 5 μM); details: antagonistic activity, beta-arrestin assay, HEK 293 PTGER2 cells, PGE2 5 μM (EC80); read-out: hEP2 b-arr IC50
T4 construct: host or cells: HEK 293 (PathHunter, stably transfected)
T4 sequence (P43116 whole entry): as above
Description: as §1, §2
as §3, with “293 PTGER2” for “293 PTGER4”, “(DiscoverX 93-021-4C1)” for “(DiscoverX 93-030-4C1)”, “20 μl” for “20 ul”
as §4
PGE2 (Cayman 14010, stock solution: 10 mM in DMSO) is used as agonist at 5 μM final concentration, corresponding to EC80.
Five microliters of diluted compounds are transferred into the assay plate. Plate is pre-incubated 15 minutes at 37° C. Then five microliters of PGE2 (final conc. 5 μM) are transferred into the assay plate. Plate is incubated 120 minutes at 37° C.
as §5, §6, §7

SMILES	pIC50 (PTGER4 (EP4))	pIC50 (EP4)	pIC50 (EP2)	pIC50 (PTGER2 (EP2))
COc1ccc2ncccc2c1CCNc1cc(-c2ccc3c(=O)[nH]n(C)c3c2)ncn1 [Example 117, 6-{6-[2-(6-Methoxy-quinolin-5-yl)-ethylamino]-pyrimidin-4-yl}-1-methyl-1,2-dihydro-indazol-3-one]	6.16	6.79	6.25	–
CCOc1cc(-c2cc(NCCc3c(OC)ccc4c(OC)cccc34)ncn2)sc1C(=O)O [Example 53, 5-{6-[2-(2,5-Dimethoxy-naphthalen-1-yl)-ethylamino]-pyrimidin-4-yl}-3-ethoxy-thiophene-2-carboxylic acid]	8.30	7.77	6.52	–
CCOc1cc(-c2cc(NCCc3ccc(C(F)F)c4ccccc34)ncn2)ccc1C(=O)O [Example 71, 4-{6-[2-(4-Difluoromethyl-naphthalen-1-yl)-ethylamino]-pyrimidin-4-yl}-2-ethoxy-benzoic acid]	7.04	6.89	6.43	–
Cc1c(C)n(C)c2c(CCNc3cc(-c4ccc(C(=O)O)c(OC5CCC5)c4)ncn3)cccc12 [Example 28, 2-Cyclobutoxy-4-{6-[2-(1,2,3-trimethyl-1H-indol-7-yl)-ethylamino]-pyrimidin-4-yl}-benzoic acid]	5.85	6.01	6.16	–
CCOc1cc(-c2cc(NCCc3ccc(C(F)F)c4ccccc34)ncn2)ccc1OCC(=O)O [Example 73, (4-{6-[2-(4-Difluoromethyl-naphthalen-1-yl)-ethylamino]-pyrimidin-4-yl}-2-ethoxy-phenoxy)-acetic acid]	7.47	6.99	6.33	–
COc1ccc2ncccc2c1CCNc1cc(-c2ccnc(N3CCCCC3)c2)ncn1 [Example 112, [2-(6-Methoxy-quinolin-5-yl)-ethyl]-[6-(3,4,5,6-tetrahydro-2H-[1,2′]bipyridinyl-4′-yl)-pyrimidin-4-yl]amine]	–	6.16	6.68	6.72
COc1ccc2ncccc2c1CCNc1cc(-c2ccc(-c3nnc(N)s3)cc2)ncn1 [Example 113, {6-[4-(5-Amino-[1,3,4]thiadiazol-2-yl)-phenyl]-pyrimidin-4-yl}-[2-(6-methoxy-quiolin-5-yl)-ethyl]-amine]	–	6.34	7.57	7.33
CCOc1cc(-c2cc(NCCc3ccc(Cl)c4ccccc34)ncn2)ccc1OCC(=O)O [Example 63, (4-{6-[2-(4-Chloro-naphthalen-1-yl)-ethylamino]-pyrimidin-4-yl}-2-ethoxy-phenoxy)-acetic acid]	–	6.52	6.62	7.00
COc1ccc2ncccc2c1CCNc1cc(-c2ccc(-c3c(O)c(=O)c3=O)cc2)ncn1 [Example 91, 3-Hydroxy-4-(4-{6-[2-(6-methoxy-quinolin-5-yl)-ethylamino]-pyrimidin-4-yl}-phenyl)-cyclobut-3-ene-1,2-dione]	–	6.09	6.64	6.84
CCOc1cc(-c2cc(NCCc3c(OC)ccc4ncccc34)ncn2)ccc1NCC(=O)O [Example 88, (2-Ethoxy-4-{6-[2-(6-methoxy-quinolin-5-yl)-ethylamino]-pyrimidin-4-yl}-phenylamino)-acetic acid]	–	6.19	6.81	7.03
CCOc1cc(-c2cc(NCCc3c(F)ccc4ccccc34)ncn2)ccc1CC(=O)O [Example 97, (2-Ethoxy-4-{6-[2-(2-fluoro-naphthalen-1-yl)-ethylamino]-pyrimidin-4-yl}-phenyl)-acetic acid]	–	6.45	6.66	6.88
COc1ccc2c(C)ccnc2c1CCNc1cc(-c2ccc(C(=O)O)c(OC3CCC3)c2)ncn1 [Example 87, 2-Cyclobutoxy-4-{6-[2-(7-methoxy-4-methyl-quinolin-8-yl)-ethylamino]-pyrimidin-4-(C)yl}-benzoic acid]	–	6.07	6.99	7.15
CCOc1cc(-c2cc(NCCc3c(OC)ccc4ncccc34)ncn2)ccc1OCC(=O)O [Example 66, (2-Ethoxy-4-{6-[2-(6-methoxy-quinolin-5-yl)-ethylamino]-pyrimidin-4-yl}-phenoxy)-acetic acid]	–	6.15	6.64	6.46
CCOc1cc(-c2cc(NCCc3c(F)ccc4ccccc34)ncn2)ccc1C(=O)O [Example 93, 2-Ethoxy-4-{6-[2-(2-fluoro-naphthalen-1-yl)-ethylamino]-pyrimidin-4-yl}-benzoic acid]	–	6.37	7.44	7.44
Cc1ccc2c(cnn2C)c1CCNc1cc(-c2ccc3ccncc3c2)ncn1 [Example 115, [2-(1,5-Dimethyl-1H-indazol-4-yl)-ethyl]-(6-isoquinolin-7-yl-pyrimidin-4-yl)-amine]	–	6.31	7.02	6.61
CCOc1cc(-c2cc(NCCc3c(OC)ccc4ccccc34)ncn2)sc1CC(=O)O [Example 132, (3-Ethoxy-5-{6-[2-(2-methoxy-naphthalen-1-yl)-ethylamino]-pyrimidin-4-yl}-thiophen-2-yl)-acetic acid]	–	6.42	7.31	7.21
CCOc1cc(-c2cc(NCCc3c(C)ccc4cnccc34)ncn2)ccc1OCC(=O)O [Example 86, (2-Ethoxy-4-{6-[2-(6-methyl-isoquinolin-5-yl)-ethylamino]-pyrimidin-4-yl}-phenoxy)-acetic acid]	–	6.17	7.11	6.75
COc1ccc2ccccc2c1CCNc1cc(-c2ccc(C(=O)O)c(CC(C)C)c2)ncn1 [Example 122, 2-Isobutyl-4-{6-[2-(2-methoxy-naphthalen-1-yl)-ethylamino]-pyrimidin-4-yl}-benzoic acid]	–	6.51	7.39	7.21
CCOc1cc(-c2cc(NCCc3cccc4cc(C)n(C)c34)ncn2)sc1C(=O)O [Example 56, 5-{6-[2-(1,2-Dimethyl-1H-indol-7-yl)-ethylamino]-pyrimidin-4-yl}-3-ethoxy-thiophene-2-carboxylic acid]	–	6.53	7.28	7.28
CCOc1cc(-c2cc(NCCc3c(OC)ccc4ncccc34)ncn2)sc1C(=N)NO [Example 146, 3-Ethoxy-N-hydroxy-5-{6-[2-(6-methoxy-quinolin-5-yl)-ethylamino]-pyrimidin-4-yl}-thiophene-2-carboxamidine]	–	6.39	6.92	7.18
